In US20250382305A1 (PTC THERAPEUTICS, INC., priority 2022, published 2025):

Tests used:
[1] = system: Total ATXN3 (tATXN3) protein; assay: Endogenous Total ATXN3 (tATXN3) Protein Assay (MSD immunoassay of cell lysates); assay type: cell-based; conditions: average IC50, total ATXN3 protein in cell lysate after 48 h with compound (Table 1)
Procedure, shortened: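 By electrochemiluminescent MSD sandwich immunoassay (mouse monoclonal capture, rabbit monoclonal and SULFO-TAG anti-rabbit detection), endogenous ATXN3 was quantified in lysates of cells treated 48 h at 37° C at 10,000 cells/well. Treatment used a 7-point 3.16-fold duplicate dilution series, with average IC50 grouped into star categories.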

ATXN3 pre-mRNA = assay: RT-qPCR Assay to Quantify Exon 4 Skipping in ATXN3 pre-mRNA in Cells; assay type: cell-based; conditions: percent exon 4 skipping in ATXN3 pre-mRNA, RT-qPCR of cell lysates; average IC50
Procedure, shortened: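 IC50 derives from a dose-response fit of percent exon 4 skipping, quantified by RT-qPCR on crude lysates. Compounds tested as 7-point 3.16-fold dilutions in duplicate; cells (10,000/well) were exposed for 24 h at 37 °C before lysis.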

Row | Substance | IC50 [1] [nM] | IC50 (ATXN3 pre-mRNA) [nM]
1 | 4-(2-((1R,6R)-6-aminocyclohex-3-en-1-yl)-5-chloro-7-((thiophen-2-ylmethyl)amino)thieno[3,2-b]pyridin-3-yl)but-3-yn-1-ol and 4-(2-((1S,6S)-6-aminocyclohex-3-en-1-yl)-5-chloro-7-((thiophen-2-ylmethyl)amino)thieno[3,2-b]pyridin-3-yl)but-3-yn-1-ol [Compound 177] | ≤ 30 | ≤ 30
2 | 5-(2-chloro-6-((1R,6R)-6-(methylamino)cyclohex-3-en-1-yl)-4-((thiophen-2-ylmethyl)amino)thieno[3,2-d]pyrimidin-7-yl)pent-4-yn-1-ol and 5-(2-chloro-6-((1S,6S)-6-(methylamino)cyclohex-3-en-1-yl)-4-((thiophen-2-ylmethyl)amino)thieno[3,2-d]pyrimidin-7-yl)pent-4-yn-1-ol [Compound 293] | 30 to 300 | 30 to 300
3 | 5-(5-chloro-2-((1R,6R)-6-(dimethylamino)cyclohex-3-en-1-yl)-7-((thiophen-2-ylmethyl)amino)thieno[3,2-b]pyridin-3-yl)pent-4-yn-1-ol and 5-(5-chloro-2-((1S,6S)-6-(dimethylamino)cyclohex-3-en-1-yl)-7-((thiophen-2-ylmethyl)amino)thieno[3,2-b]pyridin-3-yl)pent-4-yn-1-ol [Compound 454] | 300 to 1000 | 300 to 1000
4 | 5-(5-chloro-2-((1R,6R)-6-(methylamino)cyclohex-3-en-1-yl)-7-((thiophen-2-ylmethyl)amino)thieno[3,2-b]pyridin-3-yl)pent-4-yn-1-ol and 5-(5-chloro-2-((1S,6S)-6-(methylamino)cyclohex-3-en-1-yl)-7-((thiophen-2-ylmethyl)amino)thieno[3,2-b]pyridin-3-yl)pent-4-yn-1-ol [Compound 288] | 30 to 300 | 30 to 300
5 | 5-(5-chloro-2-((2R,3R)-3-(methylamino)tetrahydro-2H-pyran-2-yl)-7-((thiophen-2-ylmethyl)amino)thieno[3,2-b]pyridin-3-yl)pent-4-yn-1-ol and 5-(5-chloro-2-((2S,3S)-3-(methylamino)tetrahydro-2H-pyran-2-yl)-7-((thiophen-2-ylmethyl)amino)thieno[3,2-b]pyridin-3-yl)pent-4-yn-1-ol [Compound 309] | 30 to 300 | 30 to 300
6 | 5-chloro-3-iodo-2-((1R,6R)-6-(methylamino)cyclohex-3-en-1-yl)-N-(thiophen-2-ylmethyl)thieno[3,2-b]pyridin-7-amine and 5-chloro-3-iodo-2-((1S,6S)-6-(methylamino)cyclohex-3-en-1-yl)-N-(thiophen-2-ylmethyl)thieno[3,2-b]pyridin-7-amine [Compound 387] | 30 to 300 | 300 to 1000
7 | 6-((1R,2R)-2-aminocyclohexyl)-N-benzyl-2-chloro-7-methylthieno[3,2-d]pyrimidin-4-amine or 6-((1S,2S)-2-aminocyclohexyl)-N-benzyl-2-chloro-7-methylthieno[3,2-d]pyrimidin-4-amine [Compound 43] | > 1000 | > 1000
8 | 6-((1R,2R)-2-aminocyclohexyl)-N-benzyl-2-chloro-7-methylthieno[3,2-d]pyrimidin-4-amine or 6-((1S,2S)-2-aminocyclohexyl)-N-benzyl-2-chloro-7-methylthieno[3,2-d]pyrimidin-4-amine [Compound 48] | 30 to 300 | 30 to 300
9 | 6-((1R,6R)-6-aminocyclohex-3-en-1-yl-2,2,3,4,5,5-d6)-2-chloro-N-(furan-2-ylmethyl)-7-methylthieno[3,2-d]pyrimidin-4-amine and 6-((1S,6S)-6-aminocyclohex-3-en-1-yl-2,2,3,4,5,5-d6)-2-chloro-N-(furan-2-ylmethyl)-7-methylthieno[3,2-d]pyrimidin-4-amine [Compound 297] | 30 to 300 | 30 to 300
10 | 6-((1R,6R)-6-aminocyclohex-3-en-1-yl-2,2,3,4,5,5-d6)-7-bromo-2-chloro-N-(furan-2-ylmethyl)thieno[3,2-d]pyrimidin-4-amine and 6-((1S,6S)-6-aminocyclohex-3-en-1-yl-2,2,3,4,5,5-d6)-7-bromo-2-chloro-N-(furan-2-ylmethyl)thieno[3,2-d]pyrimidin-4-amine [Compound 200] | ≤ 30 | ≤ 30
11 | 6-((1R,6R)-6-aminocyclohex-3-en-1-yl-2,2,3,4,5,5-d6)-7-bromo-2-chloro-N-(thiophen-2-ylmethyl)thieno[3,2-d]pyrimidin-4-amine [Compound 372] | 30 to 300 | 30 to 300
12 | 6-((1S,2S)-2-aminocyclohexyl)-2,7-dichloro-5-(difluoromethyl)-N-(furan-2-ylmethyl)-5H-pyrrolo[3,2-d]pyrimidin-4-amine and 6-((1R,2R)-2-aminocyclohexyl)-2,7-dichloro-5-(difluoromethyl)-N-(furan-2-ylmethyl)-5H-pyrrolo[3,2-d]pyrimidin-4-amine [Compound 334] | 30 to 300 | 30 to 300
13 | 6-((1S,2S)-2-aminocyclohexyl)-N-(but-2-yn-1-yl)-2-chloro-7-iodothieno[3,2-d]pyrimidin-4-amine [Compound 286] | 30 to 300 | 30 to 300
14 | 6-((1S,6S)-6-aminocyclohex-3-en-1-yl)-4-((furan-2-ylmethyl)amino)-7-methylthieno[3,2-d]pyrimidine-2-carbonitrile [Compound 282] | 30 to 300 | 30 to 300
15 | 6-((1S,6S)-6-aminocyclohex-3-en-1-yl-2,2,3,4,5,5-d6)-7-bromo-2-chloro-N-(thiophen-2-ylmethyl)thieno[3,2-d]pyrimidin-4-amine [Compound 183] | ≤ 30 | ≤ 30
16 | 6-((2R,3R)-3-aminotetrahydro-2H-pyran-2-yl)-2-chloro-N-(furan-2-ylmethyl)-7-iodothieno[3,2-d]pyrimidin-4-amine and 6-((2S,3S)-3-aminotetrahydro-2H-pyran-2-yl)-2-chloro-N-(furan-2-ylmethyl)-7-iodothieno[3,2-d]pyrimidin-4-amine [Compound 243] | ≤ 30 | ≤ 30
17 | 6-((2S,3S)-3-aminotetrahydro-2H-pyran-2-yl)-7-bromo-2-chloro-5-(difluoromethyl)-N-(furan-2-ylmethyl)-5H-pyrrolo[3,2-d]pyrimidin-4-amine [Compound 215] | ≤ 30 | ≤ 30
18 | 6-((2S,3S)-3-aminotetrahydro-2H-pyran-2-yl)-N-benzyl-2,7-dichloro-5-(difluoromethyl)-5H-pyrrolo[3,2-d]pyrimidin-4-amine and 6-((2R,3R)-3-aminotetrahydro-2H-pyran-2-yl)-N-benzyl-2,7-dichloro-5-(difluoromethyl)-5H-pyrrolo[3,2-d]pyrimidin-4-amine [Compound 392] | 300 to 1000 | 30 to 300
19 | 6-((3R,4S)-3-aminotetrahydro-2H-pyran-4-yl)-2,7-dichloro-N-(furan-2-ylmethyl)thieno[3,2-d]pyrimidin-4-amine and 6-((3S,4R)-3-aminotetrahydro-2H-pyran-4-yl)-2,7-dichloro-N-(furan-2-ylmethyl)thieno[3,2-d]pyrimidin-4-amine [Compound 354] | 30 to 300 | 30 to 300
20 | 6-((3R,4S)-3-aminotetrahydro-2H-pyran-4-yl)-2-chloro-N-(furan-2-ylmethyl)-7-((trimethylsilyl)ethynyl)thieno[3,2-d]pyrimidin-4-amine and 6-((3S,4R)-3-aminotetrahydro-2H-pyran-4-yl)-2-chloro-N-(furan-2-ylmethyl)-7-((trimethylsilyl)ethynyl)thieno[3,2-d]pyrimidin-4-amine [Compound 317] | 30 to 300 | 30 to 300
21 | 6-((3R,4S)-3-aminotetrahydro-2H-pyran-4-yl)-2-chloro-N-(furan-2-ylmethyl)-7-iodothieno[3,2-d]pyrimidin-4-amine and 6-((3S,4R)-3-aminotetrahydro-2H-pyran-4-yl)-2-chloro-N-(furan-2-ylmethyl)-7-iodothieno[3,2-d]pyrimidin-4-amine [Compound 245] | ≤ 30 | ≤ 30
22 | 6-((3R,4S)-3-aminotetrahydro-2H-pyran-4-yl)-2-chloro-N-(furan-2-ylmethyl)-7-vinylthieno[3,2-d]pyrimidin-4-amine and 6-((3S,4R)-3-aminotetrahydro-2H-pyran-4-yl)-2-chloro-N-(furan-2-ylmethyl)-7-vinylthieno[3,2-d]pyrimidin-4-amine [Compound 390] | 300 to 1000 | 30 to 300
23 | 6-((3R,4S)-3-aminotetrahydro-2H-pyran-4-yl)-7-bromo-2-chloro-N-(furan-2-ylmethyl)thieno[3,2-d]pyrimidin-4-amine and 6-((3S,4R)-3-aminotetrahydro-2H-pyran-4-yl)-7-bromo-2-chloro-N-(furan-2-ylmethyl)thieno[3,2-d]pyrimidin-4-amine [Compound 339] | 30 to 300 | 30 to 300
24 | 6-((3R,4S)-3-aminotetrahydro-2H-pyran-4-yl)-7-bromo-2-chloro-N-(thiophen-2-ylmethyl)thieno[3,2-d]pyrimidin-4-amine and 6-((3S,4R)-3-aminotetrahydro-2H-pyran-4-yl)-7-bromo-2-chloro-N-(thiophen-2-ylmethyl)thieno[3,2-d]pyrimidin-4-amine [Compound 347] | 30 to 300 | 30 to 300
